Assay results as given in US7902226B2, “Dehalogeno-compounds” (Daiichi Pharmaceutical Co., Ltd., priority 2000, dated 2011).
≈ marks a conversion by molar mass, not a printed value.

Key:
Experiment in all cases: Antibacterial activity (MIC), standard method of the Japan Society of Chemotherapy
Format in all cases: cell-based
[1] = test system: S. epidermidis, 56500; settings: Staphylococcus epidermidis
In short: (§1)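 MICs were determined by the standard method designated by the Japan Society of Chemotherapy and are reported in µg/ml.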

[2] = test system: S. flexneri, 2A 5503; settings: Shigella flexneri, 2A5503
In short: as §1

[3] = test system: Ser. marcescens, 10100; settings: Serratia marcescens
In short: as §1

[4] = test system: S. aureus, 870307; settings: Staphylococcus aureus
In short: as §1

[5] = test system: K. pneumoniae, Type 1; settings: Klebsiella pneumoniae, TYPE1
In short: as §1

[6] = test system: S. aureus, 209P; settings: Staphylococcus aureus
In short: as §1

[7] = test system: Str. pyogenes, G-36; settings: Streptococcus pyogenes, G36
In short: as §1

[8] = test system: Pr. vulgalis, 08601
In short: as §1

[9] = test system: Str. faecalis, ATCC 19433; settings: Enterococcus faecalis, ATCC19433
In short: as §1

| Structure (SMILES) | MIC [1] [ng/mL] | MIC [2] [ng/mL] | MIC [3] [µg/mL] | MIC [4] [µg/mL] | MIC [5] [µg/mL] | MIC [6] [ng/mL] | MIC [7] [ng/mL] | MIC [8] [ng/mL] | MIC [9] [ng/mL] |
| --- | --- | --- | --- | --- | --- | --- | --- | --- | --- |
| Cc1c(N2CC[C@@H](C3(N)CC3)C2)ccc2c(=O)c(C(=O)O)cn([C@@H]3C[C@@H]3F)c12 [Example 1, 7-[3-(R)-(1-aminocyclopropyl)pyrrolidin-1-yl]-1-[2-(S)-fluoro-1-(R)-cyclopropyl]-1,4-dihydro-8-methyl-4-oxoquinoline-3-carboxylic acid] | ≤ 3 | 6 (≈ 0.0156 µM) | 0.025 (≈ 0.0649 µM) | 0.05 (≈ 0.13 µM) | 0.025 (≈ 0.0649 µM) | ≤ 3 | ≤ 3 | ≤ 3 | 12 (≈ 0.0311 µM) |
| Cc1c(N2CC[C@@H](C3(N)CC3)C2)c(F)cc2c(=O)c(C(=O)O)cn([C@@H]3C[C@@H]3F)c12 [Reference drug 1, 7-[3-(R)-(1-aminocyclopropyl)pyrrolidin-1-yl]-6-fluoro-1-[2-(S)-fluoro-1-(R)-cyclopropyl]-8-methyl-1,4-dihydro-4-oxoquinoline-3-carboxylic acid, reference compound] | ≤ 3 | ≤ 3 | 0.012 (≈ 0.0297 µM) | 0.012 (≈ 0.0297 µM) | 0.006 (≈ 0.0149 µM) | ≤ 3 | ≤ 3 | ≤ 3 | 6 (≈ 0.0149 µM) |
